# Target: T1, human p38alfa (SAPKa) enzyme (Homo sapiens, UniProt Q16539)
# T1 construct: purchased University of Dundee
# Assay: Inhibition assay: p38alfa enzymatic activity (FRET, biotinylated ATF2 substrate)
# Assay type: biochemical
# Details: 1 h pre-incubation; ATF2 0.62 μM and ATP 60 μM; 1 h at 25° C.; read-out: p38α IC50
# Procedure: Various concentrations of the test compound or vehicle controls were pre-incubated for one hour with 0.055 μg/ml of the human p38alfa (SAPKa) enzyme (obtained from University of Dundee). […] Addition of the detection reagents, streptavidin-XL665 and anti-phosphoresidue antibody coupled to Europium cryptate, caused the juxtaposition of the cryptate and the XL665 fluorophore, resulting in fluorescence energy transfer (FRET). The FRET intensity depends on the amount of bounded cryptate antibody, which is proportional to the extent of substrate phosphorylation. FRET intensity was measured using Victor 2V spectrofluorometer.
# Data were analyzed by non-linear regression (Hill equation) to generate a dose-response curve.
# T1 sequence (Q16539 whole entry): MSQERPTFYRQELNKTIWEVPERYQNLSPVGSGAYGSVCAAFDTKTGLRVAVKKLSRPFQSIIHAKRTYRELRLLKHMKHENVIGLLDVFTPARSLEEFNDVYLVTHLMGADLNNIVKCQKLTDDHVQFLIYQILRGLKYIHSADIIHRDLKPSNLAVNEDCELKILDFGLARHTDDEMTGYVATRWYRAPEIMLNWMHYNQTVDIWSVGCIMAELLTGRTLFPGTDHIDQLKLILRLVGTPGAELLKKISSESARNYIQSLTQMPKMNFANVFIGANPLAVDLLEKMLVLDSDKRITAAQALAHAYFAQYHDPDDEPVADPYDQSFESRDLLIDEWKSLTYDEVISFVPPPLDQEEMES
row,SMILES,IC50
1,"Cc1ccc2c(NC3CC3)noc2c1-c1cnc2c(c1)NC(=O)C21CCC(C)(O)CC1 (stereo not drawn) [Example 9, 6′-(3-(cyclopropylamino)-6-methylbenzo[d]isoxazol-7-yl)-4-hydroxy-4-methylspiro[cyclohexane-1,3′-pyrrolo[3,2-b]pyridin]-2′(1′H)-one]",0.4 nM
2,"Cc1ccc2c(N)noc2c1-c1ccc2c(c1)NC(=O)C21CCC(C)(O)CC1 (stereo not drawn) [Example 12, 6′-(3-amino-6-methylbenzo[d]isoxazol-7-yl)-4-hydroxy-4-methylspiro[cyclohexane-1,3′-indolin]-2′-one]",0.9 nM
3,"Cc1ccc2c(N)noc2c1-c1ccc2c(c1)NC(=O)C21CCC(OCCN2CCOCC2)CC1 (stereo not drawn) [Example 13, 6′-(3-amino-6-methylbenzo[d]isoxazol-7-yl)-4-(2-morpholinoethoxy)spiro[cyclohexane-1,3′-indolin]-2′-one]",3.3 nM
4,"Cc1ccc2c(N)noc2c1-c1ccc2c(c1)NC(=O)C21CCC(F)(F)CC1 [Example 14, 6′-(3-Amino-6-methyl-1,2-benzisoxazol-7-yl)-4,4-difluorospiro[cyclohexane-1,3′-indol]-2′(1′H)-one]",1 nM
5,"Cc1ccc2c(N)noc2c1-c1ccc2c(c1)NC(=O)C2(C)C [Example 15, 6-(3-Amino-6-methyl-1,2-benzisoxazol-7-yl)-3,3-dimethyl-1,3-dihydro-2H-indol-2-one]",38 nM
6,"Cc1ccc2c(NC3CC3)noc2c1-c1ccc2c(c1)NC(=O)C21CCCC1 [Example 1, 6′-(3-(Cyclopropylamino)-6-methylbenzo[d]isoxazol-7-yl)spiro[cyclopentane-1,3′-indolin]-2′-one]",0.9 nM
7,"Cc1ccc2c(NC3CC3)noc2c1-c1cnc2c(c1)NC(=O)C21CCOCC1 [Example 7, 6′-(3-(cyclopropylamino)-6-methylbenzo[d]isoxazol-7-yl)-2,3,5,6-tetrahydrospiro[pyran-4,3′-pyrrolo[3,2-b]pyridin]-2′(1′H)-one]",6.3 nM
8,"Cc1ccc2c(NC3CC3)noc2c1-c1ccc2c(c1)NC(=O)C2(C)C [Example 6, 6-(3-(Cyclopropylamino)-6-methylbenzo[d]isoxazol-7-yl)-3,3-dimethylindolin-2-one]",0.4 nM
9,"Cc1ccc2c(NC3CC3)noc2c1-c1cnc2c(c1)NC(=O)C21CCC(C)(O)CC1 (stereo not drawn) [Example 8, 6′-(3-(cyclopropylamino)-6-methylbenzo[d]isoxazol-7-yl)-4-hydroxy-4-methylspiro[cyclohexane-1,3′-pyrrolo[3,2-b]pyridin]-2′(1′H)-one]",0.65 nM
10,"Cc1ccn2c(NCC3CC3)nnc2c1-c1ccc2c(c1)NC(=O)C21CCCC1 [Example 20, 6′-(3-(cyclopropylmethylamino)-7-methyl-[1,2,4]triazolo[4,3-a]pyridin-8-yl)spiro[cyclopentane-1,3′-indolin]-2′-one]",20 nM
11,"Cc1ccc2c(NC3CC3)noc2c1-c1ccc2c(c1)NC(=O)C21CCOCC1 [Example 4, 6-(3-(Cyclopropylamino)-6-methylbenzo[d]isoxazol-7-yl)-2′,3′,5′,6′-tetrahydrospiro [indoline-3,4′-pyran]-2-one]",0.2 nM
12,"O=C1Nc2cc(-c3cccc4c(NC5CC5)noc34)ccc2C12CCCC2 [Example 2, 6′-(3-(Cyclopropylamino)benzo[d]isoxazol-7-yl)spiro[cyclopentane-1,3′-indolin]-2′-one]",39 nM
13,"O=C1Nc2cc(-c3cccc4c(NC5CC5)noc34)c(Cl)cc2C12CCCC2 [Example 3, 5′-Chloro-6′-(3-(cyclopropylamino)benzo[d]isoxazol-7-yl)spiro[cyclopentane-1,3′-indolin]-2′-one]",4 nM
14,"Cc1ccc2c(NC3CC3)noc2c1-c1ccc2c(c1)NC(=O)C21CCC(F)(F)CC1 [Example 5, 6′-(3-(Cyclopropylamino)-6-methylbenzo[d]isoxazol-7-yl)-4,4-difluorospiro [cyclohexane-1,3′-indolin]-2′-one]",0.06 nM
15,"Cc1ccc2c(N)noc2c1-c1ccc2c(c1)NC(=O)C21CCOCC1 [Example 11, 6-(3-Amino-6-methylbenzo[d]isoxazol-7-yl)-2′,3′,5′,6′-tetrahydrospiro[indoline-3,4′-pyran]-2-one]",10 nM

# Source: patent publication US8450341B2, “Substituted indolin-2-one derivatives and their use as P38 mitogen-activated kinase inhibitors” (Almirall, S.A., priority 2008, dated 2013)
